The values that follow come from PMC7939445, “Exploitation of dihydroorotate dehydrogenase (DHODH) and p53 activation as therapeutic targets: A case study in polypharmacology” (The Journal of Biological Chemistry, 2021).

The target in experiment [1] is T1, recombinant human DHODH (Homo sapiens, UniProt Q02127).
T1 construct: made in house
Kind of experiment: DHODH enzymatic assay (kinetic, DCIP reduction). The format is biochemical. On the procedure:
Enzyme assays were performed with 6 nM recombinant human DHODH prepared as described ([36]). The reaction mixture for these kinetic assays consisted of 1 mM DHO, 100 μM 2,3-dimethoxy-5-methyl-p-benzoquinone (Sigma–Aldrich #D9150), and 100 μM 2,6-dichlorophenolindophenol sodium salt (DCIP; Sigma–Aldrich #D1878) in enzyme buffer (50 mM Tris-HCl pH 8.0, 0.1% Triton X-100, 150 mM KCl). A stock solution of 20 mM DCIP was prepared in enzyme buffer and filtered through filter paper (20−25-μm pore size) just before use. Loss in absorbance by DCIP was measured at 595 nm at room temperature in a stepped time course (8 × 2 min, 8 × 3 min, 6 × 5 min). The observed decrease in absorbance over time was linear between 8 and 26 min. Therefore, for each concentration of inhibitor tested, a value for DHODH's Vmax was estimated by linear regression within this time frame. The IC50 is defined as the concentration of inhibitor that gives Vmax([I]) = Vmax(DMSO)/2.

Experiment [2] concerns ARN8 cells. Nature of the experiment: SRB assay in ARN8 cells with nucleotide supplementation. The format is cell-based, human. Conditions: 72 h, 100 μM uridine, 1 mM DHO or 1 mM OA. The method, then:
Cells were seeded in a 96-well plate at a density of 500 cells/well (ARN8) in a volume of 100 μl of fully supplemented growth medium and incubated as described above for 24 h. SKNSH p53 WT pCMV neo cells were seeded at 7500 cells/well in 100 μl of fully supplemented growth medium and incubated as described above for 24 h. SKNSH ddp53 cells were seeded at a density of 6000 cells/well in 100 μl of fully supplemented growth medium and incubated as described above for 24 h. Cells were checked for adherence and treated with tenovins in DMSO supplemented with 100 μM uridine, 1 mM DHO, or 1 mM OA. The final percentage of DMSO per well was <0.2%. Cells were incubated for 72 h with compounds. Following incubation, medium was removed from the cells and replaced by 150 μl of 1× sterile PBS and 50 μl of 40% (w/v) TCA (Sigma–Aldrich #T9159) in distilled H2O and incubated at 4 °C for 1 h to fix the cells. The plate was then washed with three changes of water with all liquid allowed to drain from the plate. 50 μl of 0.4% (w/v) sulforhodamine B (Sigma–Aldrich #230162) with 1% (v/v) acetic acid (Sigma–Aldrich #320099) in H2O was added to each well and incubated for 30 min. Excess dye was washed out with three changes of 1% (v/v) acetic acid in H2O. The remaining dye was solubilized in 100 μl of 10 mM unbuffered Tris-base (Sigma–Aldrich #93362) per well, and absorbance was read at 490 nm on a spectrophotometer.

The test system of experiment [3] is ARN8 cells. Kind of experiment: Propidium iodide flow cytometry (cell cycle). The experiment is classed as cell-based, human. Conditions: 48 h; for Effect on cell cycle distribution / cell death: 10 μM tenovins 1 and 33 or 200 nM brequinar; for Effect of uridine or OA on the compound's cell cycle effect: 10 μM, 100 μM uridine or 1 mM OA, not with DHO. On the procedure: ARN8 cells were seeded at 30,000 per well, respectively, in 6-well plates and incubated for 24 h. All compounds were diluted to 10× stocks in fully supplemented growth medium. Cells were incubated with the compounds for 48 h. Cell culture medium was removed and placed into Falcon tubes. Wells were washed twice with 1× PBS with the washes saved in the Falcon tubes to harvest floating dead cells. Cells remaining in the wells were trypsinized with 200 μl of 1× trypsin/EDTA (Sigma–Aldrich #T4174). Following detachment, fresh growth medium was added to each well, and the contents were removed and placed in the relevant tubes. Any remaining cells in the plate were then gathered by washing twice with 2 ml of 1× PBS with the washes saved and added to the relevant tubes. The tubes were centrifuged at 500 × g for 5 min. Cell pellets were washed twice with 1× PBS. The pellets were resuspended in 1 ml of 1× PBS and added dropwise to 3 ml of 99.9% ethanol while vortex mixing at high speed. Cells were then fixed at –20 °C for 24 h. Following fixation, cells were pelleted at 1390 × g for 5 min. The cells were washed three times with 2 ml of 1× PBS containing 3% FBS with centrifugation at 1390 × g between washes. Cells were resuspended in 0.5 ml of PBS containing 10 μg of propidium iodide (Invitrogen #P3566) and 50 μg of RNase A (Sigma–Aldrich #R4642) and incubated on ice in the dark for 10 min. Flow cytometry was performed using a BD Biosciences FACScan or FACSCalibur with 10,000 events counted within the gating region.

The next experiment has as its system U2OS or ARN8 cells. Kind of experiment: Uridine uptake assay ([3H]uridine, scintillation counting). The format is cell-based, human. The settings on record: 5 μM. On the procedure:
100,000 (24-h assay) or 200,000 (15-min assay) U2OS or ARN8 cells were seeded per well in 6-well plates in 2 ml of fully supplemented culture medium as described above. 24 h postseeding, medium was removed, and cells were treated with the indicated compounds for either 15 min or 24 h in 2 ml of FBS-free medium supplemented with serum replacement 3 (Sigma–Aldrich #S2640). At the end of the treatment, an extra well of each treatment was harvested in 100 μl of 1× LDS (62.5 mM Tris-HCl, pH 6.8, 10% glycerol, 1% LDS) for quantification of protein levels to determine the level of cell death after 24 h for normalization with protein concentration determined by the Bio-Rad DC protein assay (Bio-Rad #5000111). [^3H]Uridine (PerkinElmer Life Sciences #NET367001MC) was prepared in serum replacement medium to a final emission of 3.65 μCi ml^−1 and added to cells for 10 min. Following 10 min, the cells were washed with four quick changes of 1 mM unlabeled uridine prepared in ice-cold transport buffer (20 mM Tris-HCl, pH 7.4, 130 mM NaCl, 3 mM K2HPO4, 1 mM MgCl2, 5 mM glucose, 2 mM CaCl2). The samples were then harvested in 100 μl of 10% SDS. 900 μl of Optiphase Supermix (PerkinElmer Life Sciences #1200-439) was added to each sample, and the cpm were measured using a 1450 MicroBeta JET for liquid scintillation (PerkinElmer Life Sciences/Wallac).

The test system of experiment [4] is HCT116 p53 WT and p53 KO cells. Nature of the experiment: IncuCyte cell confluence measurements. The experiment is classed as cell-based, human. Conditions: HCT116 p53 WT or KO, 5 μM, confluence over 72 h. On the procedure:
ARN8 or HCT116 p53 WT or KO cells were seeded in a 96-well plate at a density of 4000 cells/well in a volume of 100 μl. […] The medium of the assigned wells was replaced with 100 μl of fresh medium containing a 5 μM concentration of the corresponding Tenovins or DMSO control and placed in an IncuCyte S3 system located inside a CO2 incubator.

The test system of experiment [5] is p53 transcriptional activity in ARN8 cells. Nature of the experiment: p53 transcriptional activation (CPRG) cell reporter assay. The experiment is classed as cell-based, human. The settings on record: 18 h, 100 μM uridine, 1 mM DHO or 1 mM OA. The method, then: ARN8 cells were seeded in a 96-well plate at a density of 20,000 cells/well in a volume of 100 μl of fully supplemented growth medium. […] Subsequently, 50 μl of 1× reporter lysis buffer (Promega #E4030) was added to each well, and the plates were stored at –20 °C for at least 2 h.

Experiment [6] has as its system p53, hdm2 and p21 in ARN8 cells. Nature of the experiment: Western blotting of p53 and p53 targets in ARN8 cells. The experiment is classed as cell-based, human. Conditions: 5 μM; for Treatment time at which p53 protein levels increased: blotted at 2, 4, 6 or 8 h; for Effect of OA and uridine on p53 protein and downstream signaling (hdm2, p21): 24 h, 100 μM uridine or 1 mM OA. On the procedure:
150,000 ARN8, HCT116 p53 WT, or HCT116 p53 KO cells were seeded on 6-well plates in 2 ml of fully supplemented medium as described above. […] A protein assay was conducted using the Bio-Rad DC protein analysis kit (Bio-Rad #5000111), and the protein levels were normalized between samples. […] The transfer was conducted using the Trans-Blot Turbo preset program for standard semidry transfer (30 min). All membranes were blocked in 5% milk (w/v) in PBS-T containing 0.1% Tween 20 (v/v) (Sigma–Aldrich P9416). All antibodies were made up in 5% milk (w/v) in PBS-T. All antibody incubations were either overnight at 4 °C or at room temperature for 1 h. […] All secondary antibodies were polyclonal rabbit anti-mouse antibodies conjugated to horseradish peroxidase (DAKO, Glostrup, Denmark #P0260) and diluted at concentrations of 1:2000 (v/v). […] All blots were normalized to their respective vehicle control and quantified using ImageLab where quantification was required (Bio-Rad version 5.2.1 build 11).

In experiment [7] the target is T1, recombinant human DHODH. Kind of experiment: Thermal shift assay using intrinsic FMN fluorescence. The experiment is classed as binding. Conditions: 200 μM compound, 5 μM DHODH. The method, then: 5 μM recombinant human DHODH prepared as described ([36]) was used in this assay. The assay relied upon the intrinsic fluorescence of the embedded flavin mononucleotide (FMN) within the DHODH as a proxy for unfolding of DHODH across a temperature range, much in the same manner as the thermal shift assay using SYPRO Orange ([37]). A PCR machine with a filter set with an excitation range of 475–500 nm and an emission range of 520–590 nm was used for this experiment. 5 μM DHODH was prepared with 200 μM compound with a final concentration of 0.5% DMSO in each sample in buffer consisting of 50 mM HEPES and 150 mM NaCl. The final assay volume was 10 μl. The samples were heated across a temperature range with the fluorescence emission from FMN monitored at each temperature.

Setting [8] is: 6 nM recombinant human DHODH, average of three independent repeats, read-out: DHODH inhibition (enzyme assay), IC50.

Read-outs that look alike come from different tables or passages of the source.

T1 sequence (Q02127 whole entry): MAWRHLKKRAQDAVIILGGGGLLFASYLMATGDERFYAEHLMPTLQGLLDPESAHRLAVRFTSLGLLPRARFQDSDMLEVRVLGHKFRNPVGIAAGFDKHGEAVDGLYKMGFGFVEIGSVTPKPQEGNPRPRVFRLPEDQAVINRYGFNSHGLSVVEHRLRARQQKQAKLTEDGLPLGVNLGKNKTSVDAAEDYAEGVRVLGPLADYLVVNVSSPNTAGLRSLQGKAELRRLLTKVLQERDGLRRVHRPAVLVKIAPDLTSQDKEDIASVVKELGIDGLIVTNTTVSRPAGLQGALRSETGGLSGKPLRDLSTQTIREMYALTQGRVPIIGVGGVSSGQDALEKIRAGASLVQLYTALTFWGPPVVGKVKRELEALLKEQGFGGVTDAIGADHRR

Regarding `CC(=O)Nc1ccc(NC(=S)NC(=O)c2ccc(C(C)(C)C)cc2)cc1` [Tenovin 1], the IC50 on recombinant human DHODH [1] (setting [8]) is 0.113 µM; at recombinant human DHODH [1] (enzyme assay, read-out: DHODH IC50), about 0.113 µM. Moreover, the “Effect of supplementation on tumor cell growth inhibition (SRB)” value in the experiment on ARN8 cells [2] is “reduced upon supplementation with uridine or OA”. In addition, the “Effect on cell cycle distribution / cell death” value in the experiment with ARN8 cells [3] is reported as “increase in cell death”. For the same molecule, the “Effect of uridine or OA on the compound's cell cycle effect” value with ARN8 cells [3] is “effect on the cell cycle largely prevented”. Besides, the “Inhibition of uridine uptake after 15 min” value (shortened to “Inhibition of uridine uptake”) in the experiment with U2OS or ARN8 cells is “unable to alter uridine uptake”.

Regarding `CN(C)CCCCC(=O)Nc1ccc(NC(=S)NC(=O)c2ccc(C(C)(C)C)cc2)cc1` [Tenovin 6], the IC50 at recombinant human DHODH [1] (setting [8]) is 0.5 µM. Also, in the experiment with ARN8 cells [2], the “Effect of supplementation on tumor cell growth inhibition (SRB)” value is “no rescue of cell viability”. For the same molecule, the “Effect on cell growth in p53 KO versus p53 WT cells” value in experiment [4] is given as “effects on cell growth ablated in the p53 KO cells”. In addition, in experiment [5], the “Effect of supplementation on induction of p53 transcriptional activity” value is on record as “partially ablated”. Moreover, in experiment [6], the “Treatment time at which p53 protein levels increased” value came out at 2 h; the “Effect of OA and uridine on p53 protein and downstream signaling (hdm2, p21)” value was “ablation of p53 downstream signaling”. The “Inhibition of uridine uptake” value in the experiment on U2OS or ARN8 cells is “able to inhibit uridine uptake”.

For the molecule `CN(C)CCCCC(=O)Nc1ccc(NC(=O)NC(=O)c2ccc(C(C)(C)C)cc2)cc1` [Tenovin 33], the half-inhibitory concentration (IC50) at recombinant human DHODH [1] (setting [8]) is over 20 µM. The “Inhibition of DHODH enzyme activity (in words)” value at recombinant human DHODH [1] (biochemical assay) was “incapable of inhibiting DHODH enzyme activity”. Further, the “Effect of supplementation on tumor cell growth inhibition (SRB)” value with ARN8 cells [2] is “reduced upon supplementation with uridine or OA”. Further, in the experiment with ARN8 cells [3], the “Effect on cell cycle distribution / cell death” value is reported as “increase in the percentage of cells in S-phase” and the “Effect of uridine or OA on the compound's cell cycle effect” value is “effect on the cell cycle largely prevented”. Moreover, the “Effect of supplementation on induction of p53 transcriptional activity” value in experiment [5] was “completely ablated”. For the same molecule, on recombinant human DHODH [7], the “Stabilization of DHODH in thermal shift assay” value is “nor was it able to stabilize DHODH in a thermal shift assay”. In addition, in experiment [6], the “Treatment time at which p53 protein levels increased” value came to 8 h; the “Effect of OA and uridine on p53 protein and downstream signaling (hdm2, p21)” value was “ablation of p53 downstream signaling”. In addition, the “Inhibition of uridine uptake” value with U2OS or ARN8 cells is “able to inhibit uridine uptake”.

Turning to `Cc1c(-c2ccc(-c3ccccc3F)cc2)nc2ccc(F)cc2c1C(=O)O` [brequinar, reference compound], in the experiment with ARN8 cells [3], the “Effect on cell cycle distribution / cell death” value was “increase in the percentage of cells in S-phase”.
